Experimental data reported in patent US20260043007A1, “METHOD FOR PRODUCING CARDIAC MUSCLES” (Kyoto University, priority 2022, published 2026).

Legend:
[1] = system: marker genes of atrial myocytes (NR2F1, NR2F2, NPPA, KCNA5, KCNJ3, TBX5 and MYL7); experiment: Expression analysis of atrial myocyte marker genes in sorted cell subpopulations; assay type: cell-based, human; settings: both CD151-high and CD151-low, compared to DMSO-added control population
Method: (§1) On the 6th day of differentiation, the medium was replaced with cardiomyocyte induction medium 3, and from the 8th day of differentiation onwards, 3 μM of γ-secretase inhibitor (LY411575) that inhibits Notch signaling was added when changing the medium, and the cells were cultured at 37° C. under 5% oxygen conditions until the 10th day. Cells added with 0.1% DMSO were also prepared as a control. Thereafter, the medium was changed on the 10th, 13th, 15th, and 17th days, and after the medium change on the 10th day, the cells were cultured under normal oxygen conditions until the 20th day. As the cardiomyocyte induction medium 3, StemPro-34 SFM supplemented with 1% L-glutamine, 150 μg/ml transferrin, 50 μg/ml ascorbic acid, 4×10^-4 M monothioglycerol, and 5 ng/ml VEGF was used.
(§2) The expression of marker genes indicating Notch signal activity and atrial myocyte markers was analyzed for the cardiomyocyte subpopulations “DMSO/CD151-high”, “DMSO/CD151-low”, “Notch inhibitor/CD151-high”, and “Notch inhibitor/CD151-low” obtained in Experimental Example 2.
(§3) According to the conventional method, total RNA was extracted from each cell subpopulation and expression analysis was performed for the target gene of Notch signal (HEY2) and the marker genes of atrial myocytes (NR2F1, NR2F2, NPPA, KCNA5, KCNJ3, TBX5 and MYL7). […]

[2] = system: cardiomyocyte subpopulations differentiated from human iPS cells; experiment: Proportion of atrial myocytes by whole-cell patch clamp electrophysiology; assay type: cell-based; settings: for atrial myocytes (%): APD 30/90 less than 0.3 and dv/dtmax 10 or more
Method: as §1
The proportion of atrial myocytes was determined by an electrophysiological method for the “Notch inhibitor/CD151-high” and “Notch inhibitor/CD151-low” cardiomyocyte subpopulations obtained in Experimental Example 2.
Each cell subpopulation was cultured on a fibronectin-coated cover glass. Culture was performed at 37° C. under normal oxygen conditions using StemPro-34 SFM supplemented with 1% L-glutamine, 150 μg/ml transferrin, 50 ug/ml ascorbic acid, 4×10^-4 M monothioglycerol, and 5 ng/ml VEGF, with medium change every 3 days. Cells on the 15th and 16th days of culture were subjected to electrophysiological analysis.
Analysis was performed using the whole-cell patch clamp method using Axopatch 200B amplifier (Molecular Devices) and pCLAMP software. Electrodes were made with glass capillaries (WPI) using a micropipette puller and filled with intracellular solution (130 mM KOH, 130 mM L-aspartic acid, 20 mM KC1, 5 mM NaCl, 10 mM HEPES, 5 mM Mg-ATP, 10 mM EGTA, 1 mM MgC12, PH 7.2). Experiments were performed at 35-37° C. while perfusing Gey's balanced salt solution (Sigma) as the extracellular solution. The spontaneous action potential of each cell was recorded for 1 min in current clamp mode. APD30, APD90, and maximum velocity of waveform rise (dv/dtmax) were calculated from the average waveform of 8-10 consecutive waveforms. Cells showing a waveform with APD 30/90 of less than 0.3 and dv/dtmax of 10 or more were defined as atrial myocytes. Cells showing a waveform with APD 30/90 of 0.3 or more and dv/dtmax of 10 or more or dv/dtmax of less than 10 were classified as other cells. […]

[3] = system: CD151 expression in EmGFP-positive cells induced from human iPS cell line (1390D4 strain); experiment: Sorting of atrial myocyte population based on CD151 expression level (flow cytometry); assay type: cell-based; settings: 3 μM LY411575 from day 8 to day 20 of differentiation, mean ± standard error
Method: A cell population containing cardiomyocytes was induced from iPSC under atrial myocyte differentiation conditions or ventricular myocyte differentiation conditions. As iPSC, a double knock-in human iPS cell line (1390D4 strain) was used, in which EmGFP was inserted into the TNNI1 locus and mCherry was inserted into the TNNI3 locus as reporter proteins.
To differentiate iPSC into cardiomyocytes, iPSC was seeded into low-adhesion 6-well plates (2×10^6 cells/1.5 ml/well) and statically cultured at 37° C. and 5% oxygen to form embryoid bodies (day 0). The culture medium used was StemPro-34 SFM (Thermo Fisher Scientific) supplemented with 1% L-glutamine, 150 μg/ml transferrin, […] ascorbic acid, 4×10^-4 M monothioglycerol, 10 μM Rock inhibitor (Y-27632), 2 ng/ml BMP4, and 0.5% Matrigel. […]
On the 20th day of culture, the cell population containing atrial myocytes was dispersed into single cells and the cell number was counted. […] CD151 expression in EmGFP-positive cells was analyzed using a flow cytometer (BD FACS Aria Fusion cell sorter). The fluorescence intensity of 95% or more of the negative control cells was set as the threshold, and the cell subpopulations showing fluorescence intensity lower than the threshold were defined as “CD151-low” and the cell subpopulations showing fluorescence intensity higher than the threshold were defined as “CD151-high”. […]

[4] = system: HEY2 (target gene of Notch signal); experiment: Expression analysis of the target gene of Notch signal (HEY2) in sorted cell subpopulations; assay type: cell-based, human; settings: both CD151-high and CD151-low, compared to DMSO-added control
Method: as §1, §2, §3

[5] = CD151-high subpopulation, n = 19
[6] = CD151-low subpopulation, n = 20

SMILES: C[C@H](NC(=O)[C@@H](O)c1cc(F)cc(F)c1)C(=O)N[C@@H]1C(=O)N(C)c2ccccc2-c2ccccc21 [Notch inhibitor]
- expression of atrial myocyte markers [1]: increased
- other cells (%) [2, 5]: 68%
- atrial myocytes (%) [2, 5]: 32%
- other cells (%) [2, 6]: 20%
- atrial myocytes (%) [2, 6]: 80%
- Cell population (%) CD151-high [3]: 39.9 ± 3.3%
- Cell population (%) CD151-low [3]: 60.1 ± 3.3%
- expression of the HEY2 gene [4]: reduced
